Assay results: ChEMBL document CHEMBL5653631, “A Potent and Selective ULK1 Inhibitor Suppresses Autophagy and Sensitizes Cancer Cells to Nutrient Stress” (iScience, 2018)
Blank lines part the entries; values can stand above or below the compound they belong to.

What was measured:
[1] = biological target: T1, MAP kinase-activated protein kinase 5 (Homo sapiens) (UniProt Q8IW41); assay: Inhibition of human recombinant MAPKAPK5 at 500 nM related to control ULK1
T1 sequence (whole entry): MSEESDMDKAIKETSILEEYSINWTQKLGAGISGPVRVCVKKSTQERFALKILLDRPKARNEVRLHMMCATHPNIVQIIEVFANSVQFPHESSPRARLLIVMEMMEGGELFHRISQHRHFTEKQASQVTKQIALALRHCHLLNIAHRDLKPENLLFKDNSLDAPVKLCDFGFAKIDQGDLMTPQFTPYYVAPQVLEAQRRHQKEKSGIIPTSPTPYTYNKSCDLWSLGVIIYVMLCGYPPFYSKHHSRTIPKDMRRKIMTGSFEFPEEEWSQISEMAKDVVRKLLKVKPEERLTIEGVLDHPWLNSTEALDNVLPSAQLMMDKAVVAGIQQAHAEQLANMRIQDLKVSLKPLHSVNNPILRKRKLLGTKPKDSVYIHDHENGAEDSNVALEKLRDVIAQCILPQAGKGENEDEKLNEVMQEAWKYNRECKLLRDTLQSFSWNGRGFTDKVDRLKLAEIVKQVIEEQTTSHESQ

[2] = biological target: Macrophage-stimulating protein receptor (Homo sapiens) (UniProt Q04912); assay: Inhibition of human recombinant RON at 500 nM in presence of ATP by radiometric assay relative to control
[3] = biological target: Calcium/calmodulin-dependent protein kinase type II subunit beta (Homo sapiens) (UniProt Q13554); assay: Inhibition of human recombinant CaMK2b at 500 nM in presence of ATP by radiometric assay relative to control
[4] = biological target: T2, Serine/threonine-protein kinase DCLK3 (Homo sapiens) (UniProt Q9C098); assay: Inhibition of human recombinant DCAMKL3 at 500 nM in presence of ATP by radiometric assay relative to control
T2 sequence (whole entry): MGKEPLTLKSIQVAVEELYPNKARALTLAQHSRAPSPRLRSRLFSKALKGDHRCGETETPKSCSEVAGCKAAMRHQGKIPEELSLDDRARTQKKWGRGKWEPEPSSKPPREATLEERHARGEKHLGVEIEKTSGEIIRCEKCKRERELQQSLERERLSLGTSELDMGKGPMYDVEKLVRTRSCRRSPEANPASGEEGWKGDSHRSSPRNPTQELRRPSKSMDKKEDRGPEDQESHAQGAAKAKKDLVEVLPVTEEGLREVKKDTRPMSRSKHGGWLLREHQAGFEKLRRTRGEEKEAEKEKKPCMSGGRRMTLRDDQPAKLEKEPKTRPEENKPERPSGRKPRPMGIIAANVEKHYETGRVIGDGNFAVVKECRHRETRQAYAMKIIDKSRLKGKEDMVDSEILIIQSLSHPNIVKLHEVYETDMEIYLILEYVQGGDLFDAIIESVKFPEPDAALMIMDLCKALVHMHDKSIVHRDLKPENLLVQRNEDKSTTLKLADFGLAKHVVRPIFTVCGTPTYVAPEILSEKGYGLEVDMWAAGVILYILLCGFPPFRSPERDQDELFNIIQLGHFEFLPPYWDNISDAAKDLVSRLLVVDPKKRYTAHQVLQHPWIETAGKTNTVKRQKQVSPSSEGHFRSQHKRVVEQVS

[5] = biological target: Cyclin-dependent kinase 18 (Homo sapiens) (UniProt Q07002); assay: Inhibition of human recombinant PCTAIRE3 at 40 nM in presence of ATP by radiometric assay relative to control
[6] = biological target: Fibroblast growth factor receptor 3 (Homo sapiens) (UniProt P22607); assay: Inhibition of human recombinant FGFR3 at 40 nM related to control ULK1
[7] = biological target: T3, Discoidin domain-containing receptor 2 (Homo sapiens) (UniProt Q16832); assay: Inhibition of human recombinant DDR2 at 15 nM in presence of ATP by radiometric assay relative to control
T3 sequence (whole entry): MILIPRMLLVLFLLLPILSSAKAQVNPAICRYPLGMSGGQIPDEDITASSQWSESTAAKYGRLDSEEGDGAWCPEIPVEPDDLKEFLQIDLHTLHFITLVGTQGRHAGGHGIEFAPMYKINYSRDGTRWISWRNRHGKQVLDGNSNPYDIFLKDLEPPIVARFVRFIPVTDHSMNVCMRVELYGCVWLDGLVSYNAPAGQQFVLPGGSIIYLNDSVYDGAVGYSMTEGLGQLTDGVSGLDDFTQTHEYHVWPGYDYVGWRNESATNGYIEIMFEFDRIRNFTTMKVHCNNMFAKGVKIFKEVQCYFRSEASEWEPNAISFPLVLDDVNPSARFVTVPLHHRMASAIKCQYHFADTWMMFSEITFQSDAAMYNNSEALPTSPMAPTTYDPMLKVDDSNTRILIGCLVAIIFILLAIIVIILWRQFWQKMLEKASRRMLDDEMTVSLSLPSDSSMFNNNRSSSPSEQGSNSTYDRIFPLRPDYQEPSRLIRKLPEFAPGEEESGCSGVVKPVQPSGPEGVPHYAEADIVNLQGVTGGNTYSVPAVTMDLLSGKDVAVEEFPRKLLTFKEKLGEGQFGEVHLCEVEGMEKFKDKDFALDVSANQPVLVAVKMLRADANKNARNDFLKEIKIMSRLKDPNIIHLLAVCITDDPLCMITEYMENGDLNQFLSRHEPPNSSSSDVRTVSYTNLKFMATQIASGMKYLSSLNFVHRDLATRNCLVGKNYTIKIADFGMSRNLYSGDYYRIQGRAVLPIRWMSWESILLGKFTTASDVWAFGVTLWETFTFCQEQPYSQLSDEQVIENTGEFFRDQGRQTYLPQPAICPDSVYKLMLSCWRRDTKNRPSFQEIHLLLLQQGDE

[8] = biological target: Mitogen-activated protein kinase 1 (Homo sapiens) (UniProt P28482); assay: Inhibition of human recombinant Erk2 at 15 nM in presence of ATP by radiometric assay relative to control
[9] = biological target: Vascular endothelial growth factor receptor 2 (Homo sapiens) (UniProt P35968); assay: Inhibition of human recombinant KDR at 15 nM related to control ULK1
[10] = biological target: Cyclin-dependent kinase 4 (Homo sapiens) (UniProt P11802); assay: Inhibition of human recombinant CDK4 at 15 nM related to control ULK1
[11] = biological target: Mitogen-activated protein kinase 8 (Homo sapiens) (UniProt P45983); assay: Inhibition of human recombinant JNK1 at 15 nM related to control ULK1
Chain of Mitogen-activated protein kinase 8 (Homo sapiens) (P45983 whole entry): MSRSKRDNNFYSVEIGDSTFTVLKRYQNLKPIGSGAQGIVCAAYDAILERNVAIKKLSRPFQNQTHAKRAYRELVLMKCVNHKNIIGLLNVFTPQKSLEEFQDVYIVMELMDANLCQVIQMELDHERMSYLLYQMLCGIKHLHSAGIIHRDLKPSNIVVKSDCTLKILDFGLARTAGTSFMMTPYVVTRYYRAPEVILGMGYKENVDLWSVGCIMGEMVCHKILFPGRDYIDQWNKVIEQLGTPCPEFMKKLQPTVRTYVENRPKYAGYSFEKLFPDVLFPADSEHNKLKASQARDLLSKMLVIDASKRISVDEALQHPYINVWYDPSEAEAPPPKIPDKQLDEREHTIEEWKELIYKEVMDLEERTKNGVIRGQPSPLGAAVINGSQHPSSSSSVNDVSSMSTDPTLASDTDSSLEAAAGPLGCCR

Chain of Fibroblast growth factor receptor 3 (Homo sapiens) (P22607 23-806 limits assumed): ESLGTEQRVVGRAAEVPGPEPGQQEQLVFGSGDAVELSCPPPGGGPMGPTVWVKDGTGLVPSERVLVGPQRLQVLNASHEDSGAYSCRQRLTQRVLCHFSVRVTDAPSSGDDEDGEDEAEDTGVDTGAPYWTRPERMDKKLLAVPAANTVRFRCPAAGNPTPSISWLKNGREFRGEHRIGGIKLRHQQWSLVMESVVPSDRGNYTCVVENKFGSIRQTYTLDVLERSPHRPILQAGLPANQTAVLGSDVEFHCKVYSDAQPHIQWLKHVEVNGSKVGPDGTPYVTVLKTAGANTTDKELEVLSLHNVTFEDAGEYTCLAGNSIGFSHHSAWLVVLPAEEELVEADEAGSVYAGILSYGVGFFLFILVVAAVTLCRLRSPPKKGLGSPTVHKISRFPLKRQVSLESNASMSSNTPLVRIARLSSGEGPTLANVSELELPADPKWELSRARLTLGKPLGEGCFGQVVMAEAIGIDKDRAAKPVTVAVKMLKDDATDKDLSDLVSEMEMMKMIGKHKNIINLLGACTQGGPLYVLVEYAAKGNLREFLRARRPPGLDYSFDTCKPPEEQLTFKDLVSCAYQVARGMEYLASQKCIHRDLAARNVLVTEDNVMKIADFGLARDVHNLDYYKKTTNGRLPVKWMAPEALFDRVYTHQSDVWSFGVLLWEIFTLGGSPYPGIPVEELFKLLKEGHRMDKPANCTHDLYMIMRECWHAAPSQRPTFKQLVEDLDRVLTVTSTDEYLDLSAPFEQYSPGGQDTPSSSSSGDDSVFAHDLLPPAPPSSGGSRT
Chain of Cyclin-dependent kinase 4 (Homo sapiens) (P11802 whole entry): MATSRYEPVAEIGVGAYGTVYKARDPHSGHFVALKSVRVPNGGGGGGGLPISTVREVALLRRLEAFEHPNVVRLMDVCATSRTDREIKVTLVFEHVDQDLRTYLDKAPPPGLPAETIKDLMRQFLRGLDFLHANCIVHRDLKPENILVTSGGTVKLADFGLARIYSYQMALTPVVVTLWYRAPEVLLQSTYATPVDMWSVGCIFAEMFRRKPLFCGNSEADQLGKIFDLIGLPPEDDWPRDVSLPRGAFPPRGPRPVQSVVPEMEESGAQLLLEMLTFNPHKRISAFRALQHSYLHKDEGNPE
Chain of Calcium/calmodulin-dependent protein kinase type II subunit beta (Homo sapiens) (Q13554 whole entry): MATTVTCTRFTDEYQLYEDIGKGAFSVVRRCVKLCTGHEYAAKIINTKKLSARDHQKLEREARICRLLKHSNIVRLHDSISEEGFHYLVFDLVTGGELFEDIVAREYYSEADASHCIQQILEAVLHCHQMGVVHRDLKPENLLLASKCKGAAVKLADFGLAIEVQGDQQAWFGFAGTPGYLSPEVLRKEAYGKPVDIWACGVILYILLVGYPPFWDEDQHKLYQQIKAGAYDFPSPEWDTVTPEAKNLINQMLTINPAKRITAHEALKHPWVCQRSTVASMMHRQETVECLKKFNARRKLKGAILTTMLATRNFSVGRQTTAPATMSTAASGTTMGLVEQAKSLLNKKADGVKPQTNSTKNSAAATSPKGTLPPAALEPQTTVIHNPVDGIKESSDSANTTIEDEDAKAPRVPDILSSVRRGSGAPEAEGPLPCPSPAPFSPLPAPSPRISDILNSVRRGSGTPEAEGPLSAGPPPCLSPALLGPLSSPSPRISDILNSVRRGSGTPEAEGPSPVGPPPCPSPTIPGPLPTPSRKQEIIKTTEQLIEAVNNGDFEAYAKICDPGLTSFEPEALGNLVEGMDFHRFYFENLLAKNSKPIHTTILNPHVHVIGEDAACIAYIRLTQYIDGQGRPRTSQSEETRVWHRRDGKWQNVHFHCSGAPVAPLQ
Chain of Cyclin-dependent kinase 18 (Homo sapiens) (Q07002 whole entry): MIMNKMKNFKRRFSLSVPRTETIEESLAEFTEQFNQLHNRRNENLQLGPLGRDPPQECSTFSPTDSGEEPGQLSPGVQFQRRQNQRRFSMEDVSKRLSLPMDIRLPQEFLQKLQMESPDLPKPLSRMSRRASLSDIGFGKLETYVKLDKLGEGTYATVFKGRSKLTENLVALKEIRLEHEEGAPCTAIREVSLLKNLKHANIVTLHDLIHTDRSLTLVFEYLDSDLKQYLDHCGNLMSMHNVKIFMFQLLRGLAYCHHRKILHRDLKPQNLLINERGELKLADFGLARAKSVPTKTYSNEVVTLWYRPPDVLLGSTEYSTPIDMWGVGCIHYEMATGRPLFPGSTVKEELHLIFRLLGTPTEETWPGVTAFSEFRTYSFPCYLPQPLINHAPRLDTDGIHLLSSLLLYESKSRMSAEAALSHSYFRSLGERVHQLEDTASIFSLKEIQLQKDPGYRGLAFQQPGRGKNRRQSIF
Chain of Vascular endothelial growth factor receptor 2 (Homo sapiens) (P35968 whole entry): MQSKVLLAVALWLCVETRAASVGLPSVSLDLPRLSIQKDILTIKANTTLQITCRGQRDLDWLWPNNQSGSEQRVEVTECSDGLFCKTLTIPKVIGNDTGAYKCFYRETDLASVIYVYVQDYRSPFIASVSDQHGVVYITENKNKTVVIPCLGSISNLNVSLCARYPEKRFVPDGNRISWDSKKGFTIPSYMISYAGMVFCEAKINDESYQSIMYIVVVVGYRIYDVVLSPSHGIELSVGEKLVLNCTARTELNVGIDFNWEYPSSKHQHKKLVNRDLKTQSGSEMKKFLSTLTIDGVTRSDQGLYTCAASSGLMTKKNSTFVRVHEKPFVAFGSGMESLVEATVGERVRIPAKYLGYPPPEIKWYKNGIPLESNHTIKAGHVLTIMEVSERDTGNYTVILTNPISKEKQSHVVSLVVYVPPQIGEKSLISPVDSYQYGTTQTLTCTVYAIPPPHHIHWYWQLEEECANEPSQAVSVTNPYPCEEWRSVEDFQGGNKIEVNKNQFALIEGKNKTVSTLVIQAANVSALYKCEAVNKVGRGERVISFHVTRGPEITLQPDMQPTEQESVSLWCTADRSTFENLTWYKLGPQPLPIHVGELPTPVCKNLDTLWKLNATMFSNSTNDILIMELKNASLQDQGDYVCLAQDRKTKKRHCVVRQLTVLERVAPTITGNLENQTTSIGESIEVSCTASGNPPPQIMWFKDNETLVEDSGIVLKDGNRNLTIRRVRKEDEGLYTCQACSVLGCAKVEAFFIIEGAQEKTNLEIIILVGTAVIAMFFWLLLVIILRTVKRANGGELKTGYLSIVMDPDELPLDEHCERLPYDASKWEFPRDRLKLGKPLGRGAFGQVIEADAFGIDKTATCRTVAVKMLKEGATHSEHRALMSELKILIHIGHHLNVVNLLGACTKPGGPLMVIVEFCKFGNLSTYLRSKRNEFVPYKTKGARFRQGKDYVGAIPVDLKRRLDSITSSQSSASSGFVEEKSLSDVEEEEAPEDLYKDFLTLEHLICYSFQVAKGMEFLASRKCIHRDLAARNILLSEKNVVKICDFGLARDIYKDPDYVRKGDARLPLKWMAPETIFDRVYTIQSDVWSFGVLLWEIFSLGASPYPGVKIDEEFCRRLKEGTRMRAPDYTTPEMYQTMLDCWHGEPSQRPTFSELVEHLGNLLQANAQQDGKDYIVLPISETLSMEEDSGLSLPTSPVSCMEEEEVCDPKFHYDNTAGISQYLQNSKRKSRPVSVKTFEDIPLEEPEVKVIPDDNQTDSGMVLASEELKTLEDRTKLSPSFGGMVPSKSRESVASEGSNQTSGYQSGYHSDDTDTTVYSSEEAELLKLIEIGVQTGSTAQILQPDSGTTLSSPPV
Chain of Mitogen-activated protein kinase 1 (Homo sapiens) (P28482 whole entry): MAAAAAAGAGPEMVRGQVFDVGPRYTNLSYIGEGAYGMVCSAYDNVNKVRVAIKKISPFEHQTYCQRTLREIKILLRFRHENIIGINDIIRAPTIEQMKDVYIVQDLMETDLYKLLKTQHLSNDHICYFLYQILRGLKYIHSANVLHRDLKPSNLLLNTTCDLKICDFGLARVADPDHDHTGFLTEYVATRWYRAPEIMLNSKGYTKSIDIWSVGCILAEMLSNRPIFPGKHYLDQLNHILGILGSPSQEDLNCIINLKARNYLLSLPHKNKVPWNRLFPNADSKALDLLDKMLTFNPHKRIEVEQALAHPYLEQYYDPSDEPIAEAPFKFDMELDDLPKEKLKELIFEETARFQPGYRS

fold change (FC) [1]: 0
inhibition [2]: 1%
inhibition [3]: 0%
inhibition [4]: 0%
SMILES: CNC(=O)c1ccccc1Oc1nc(Nc2cc(OC)c(OC)c(OC)c2)ncc1Br

inhibition [5]: 31%
fold change (FC) [6]: 0
SMILES: O=C(N[C@@H](C1CC1)C(F)(F)F)c1cc(-c2cnn3cc(-c4ccc(F)cc4)cnc23)cs1

inhibition [7]: 0%
inhibition [8]: 0%
fold change (FC) [9]: 0.23
fold change (FC) [10]: 0.13
fold change (FC) [11]: 0.09
SMILES: CC(C)[C@H](NC(=O)c1cc(-c2cnn3cc(-c4ccc(OCCN5CCCCC5)cc4)cnc23)cs1)C(F)(F)F
